Laboratory results as given in article PMC11995216, “End-to-End Backbone Cyclization Enhances Passive Permeability of bRo5 Oligomeric Depsipeptides with Nonlinear Size Dependence” (ACS Medicinal Chemistry Letters, 2025).
Values joined by “and” are separate entries in the source; they are usually repeats but may differ in a detail not shown here. Identical values can stand only once. Like-named read-outs stand apart in the source and are kept apart here.

Assays:
PAMPA [1] = test system: PAMPA
[2] = calculated using Supplement Equation 1, UV detection
[3] = PAMPA, permeability assay across an artificial membrane; details: for Diffusion (%): PAMPA percent diffusion; for Acceptor Concentration, Ave: after incubation; for Δ % diffusion: increase: difference between percent diffusion of macrocycle vs linear counterpart
[4] = UV detection
PAMPA [5] = test system: PAMPA; remark: listed apart in the source
PAMPA [6] = details: calculated using Supplement Equation 1, UV detection
PAMPA [7] = test system: PAMPA; remark: listed apart in the source
PAMPA [8] = details: UV detection
[9] = PAMPA, (acceptor + donor)/total analyte, C0 500 uM
[10] = PAMPA, Papp, ratio-based method, mean ± SD, C0 500 uM, UV detection
[11] = PAMPA, Recovery (%), PAMPA, (acceptor + donor)/total analyte, C0 500 uM

## CCCCC[C@H](OC(=O)[C@@H](C)N(C)C(=O)[C@H](CCCCC)OC(=O)[C@@H](C)N(C)C(=O)[C@H](CCCCC)OC(=O)[C@@H](C)N(C)C(=O)[C@H](CCCCC)OC(=O)[C@@H](C)N(C)C(=O)[C@H](CCCCC)OC(=O)[C@@H](C)N(C)C(=O)[C@H](CCCCC)OC(=O)[C@@H](C)N(C)C(=O)OC(C)(C)C)C(=O)OCc1ccccc1 [Compound L1.6]
PAMPA [1]; Papp (x 10^-6 cm/s) / experiment 1, UV detection
  Papp: 0.4 ×10⁻⁶ cm/s
PAMPA [1]; Papp (x 10^-6 cm/s) / experiment 2, UV detection
  Papp: 0.44 ×10⁻⁶ cm/s
PAMPA [1]; Papp (x 10^-6 cm/s) / experiment 3, UV detection
  Papp: 0.41 ×10⁻⁶ cm/s
PAMPA [1]; Papp (x 10^-6 cm/s) / experiment 5, UV detection
  Papp: 0.44 ×10⁻⁶ cm/s
PAMPA [1]; Papp (x 10^-6 cm/s) / experiment 6, UV detection
  Papp: 0.43 ×10⁻⁶ cm/s
PAMPA [1]; Papp (x 10^-6 cm/s) / experiment 7, UV detection
  Papp: 0.41 ×10⁻⁶ cm/s
PAMPA [1]; Papp (x 10^-6 cm/s) / experiment 8, UV detection
  Papp: 0.43 ×10⁻⁶ cm/s
PAMPA [1]; Papp (x 10^-6 cm/s) / experiment 10, UV detection
  Papp: 0.4 ×10⁻⁶ cm/s
Well 1 / [donor]
  donor concentration after incubation: 435 µM and 410 µM
Well 2 / [donor]
  donor concentration after incubation: 398 µM and 434 µM
Well 3 / [donor]
  donor concentration after incubation: 424 µM and 410 µM
Well 4 / [donor]
  donor concentration after incubation: 416 µM and 415 µM
Well 5 / [donor]
  donor concentration after incubation: 403 µM and 438 µM
[2]; Well 1 / %T, Well 1
  %T: 0.32% and 0.44%
[2]; Well 2 / %T, Well 2
  %T: 0.37% and 0.33%
[2]; Well 3 / %T, Well 3
  %T: 0.44% and 0.4%
[2]; Well 4 / %T, Well 4
  %T: 0.41%
[2]; Well 5 / %T, Well 5
  %T: 0.37%
[3]; C0 500 uM
  Diffusion (%): < 5%
[3]; [9]
  Recovery (%): 84%
[3]; [10]
  Papp: 0.42 ×10⁻⁶ cm/s
[3]; [11]
  recovery: 83.7%
[3]; PAMPA, UV detection, C0 500 uM
  Acceptor Concentration, Ave: < 25 µM
[3]
  Δ % diffusion: ↑2%
[4]; Well 1 / %R, Well 1
  % recovery: 87% and 82%
[4]; Well 2 / %R, Well 2
  % recovery: 80% and 87%
[4]; Well 3 / %R, Well 3
  % recovery: 85% and 82%
[4]; Well 4 / %R, Well 4
  % recovery: 83%
[4]; Well 5 / %R, Well 5
  % recovery: 81% and 88%

## CCCCC[C@@H]1OC(=O)[C@@H](C)N(C)C(=O)[C@H](CCCCC)OC(=O)[C@@H](C)N(C)C(=O)[C@H](CCCCC)OC(=O)[C@@H](C)N(C)C1=O [Compound C1.3, ent-verticilide B1]
PAMPA [1]; Papp (x 10^-6 cm/s) – ELSD Detection / [row 1], ELSD Detection
  Papp: 4.16 ×10⁻⁶ cm/s
PAMPA [1]; Papp (x 10^-6 cm/s) – ELSD Detection / [row 2], ELSD Detection
  Papp: 4.41 ×10⁻⁶ cm/s
PAMPA [1]; Papp (x 10^-6 cm/s) – ELSD Detection / [row 3], ELSD Detection
  Papp: 3.96 ×10⁻⁶ cm/s
PAMPA [1]; Papp (x 10^-6 cm/s) – ELSD Detection / [row 4], ELSD Detection
  Papp: 4.13 ×10⁻⁶ cm/s
PAMPA [1]; Papp (x 10^-6 cm/s) – ELSD Detection / [row 5], ELSD Detection
  Papp: 4.45 ×10⁻⁶ cm/s
PAMPA [1]; Papp (x 10^-6 cm/s) – ELSD Detection / [row 6], ELSD Detection
  Papp: 4.03 ×10⁻⁶ cm/s
PAMPA [1]; Papp (x 10^-6 cm/s) – ELSD Detection / [row 9], ELSD Detection
  Papp: 4.31 ×10⁻⁶ cm/s
PAMPA [1]; Papp (x 10^-6 cm/s) – ELSD Detection / [row 10], ELSD Detection
  Papp: 4.39 ×10⁻⁶ cm/s
PAMPA [1]; Papp (x 10^-6 cm/s) – ELSD Detection / [row 11], ELSD Detection
  Papp: 3.96 ×10⁻⁶ cm/s
PAMPA [1]; Papp (x 10^-6 cm/s) – ELSD Detection / [row 12], ELSD Detection
  Papp: 4.4 ×10⁻⁶ cm/s
PAMPA [1]; Papp (x 10^-6 cm/s) – ELSD Detection / [row 13], ELSD Detection
  Papp: 5.05 ×10⁻⁶ cm/s
PAMPA [1]; Papp (x 10^-6 cm/s) – ELSD Detection / [row 14], ELSD Detection
  Papp: 4.44 ×10⁻⁶ cm/s
PAMPA [1]; Papp (x 10^-6 cm/s) – ELSD Detection / [row 15], ELSD Detection
  Papp: 4.01 ×10⁻⁶ cm/s
PAMPA [1]; Papp (x 10^-6 cm/s) – UV Detection / [row 1], UV Detection
  Papp: 3.32 ×10⁻⁶ cm/s
PAMPA [1]; Papp (x 10^-6 cm/s) – UV Detection / [row 2], UV Detection
  Papp: 4.01 ×10⁻⁶ cm/s
PAMPA [1]; Papp (x 10^-6 cm/s) – UV Detection / [row 3], UV Detection
  Papp: 4.37 ×10⁻⁶ cm/s
PAMPA [1]; Papp (x 10^-6 cm/s) – UV Detection / [row 4], UV Detection
  Papp: 3.67 ×10⁻⁶ cm/s
PAMPA [1]; Papp (x 10^-6 cm/s) – UV Detection / [row 5], UV Detection
  Papp: 3.75 ×10⁻⁶ cm/s
PAMPA [1]; Papp (x 10^-6 cm/s) – UV Detection / [row 7], UV Detection
  Papp: 3.19 ×10⁻⁶ cm/s
PAMPA [1]; Papp (x 10^-6 cm/s) – UV Detection / [row 8], UV Detection
  Papp: 4 ×10⁻⁶ cm/s
PAMPA [1]; Papp (x 10^-6 cm/s) – UV Detection / [row 9], UV Detection
  Papp: 3.36 ×10⁻⁶ cm/s
PAMPA [1]; Papp (x 10^-6 cm/s) – UV Detection / [row 10], UV Detection
  Papp: 3.7 ×10⁻⁶ cm/s
PAMPA [1]; Papp (x 10^-6 cm/s) – UV Detection / [row 11], UV Detection
  Papp: 3.24 ×10⁻⁶ cm/s
PAMPA [1]; Papp (x 10^-6 cm/s) – UV Detection / [row 12], UV Detection
  Papp: 3.17 ×10⁻⁶ cm/s
PAMPA [1]; Papp (x 10^-6 cm/s) – UV Detection / [row 13], UV Detection
  Papp: 3.78 ×10⁻⁶ cm/s
PAMPA [1]; Papp (x 10^-6 cm/s) – UV Detection / [row 14], UV Detection
  Papp: 3.81 ×10⁻⁶ cm/s
PAMPA [1]; Papp (x 10^-6 cm/s) – UV Detection / [row 15], UV Detection
  Papp: 3.57 ×10⁻⁶ cm/s
PAMPA [5]; Well 1 / [donor]
  donor concentration after incubation: 396 µM and 390 µM and 380 µM
PAMPA [5]; Well 2 / [donor]
  donor concentration after incubation: 370 µM and 376 µM and 374 µM
PAMPA [5]; Well 3 / [donor]
  donor concentration after incubation: 341 µM and 351 µM and 372 µM
PAMPA [5]; Well 4 / [donor]
  donor concentration after incubation: 377 µM and 362 µM and 356 µM
PAMPA [5]; Well 5 / [donor]
  donor concentration after incubation: 347 µM and 349 µM and 351 µM
PAMPA [6]; Well 1 / %T, Well 1
  %T: 0.44% (2×) and 0.41%
PAMPA [6]; Well 2 / %T, Well 2
  %T: 0.51% and 0.43% (2×)
PAMPA [6]; Well 3 / %T, Well 3
  %T: 0.54% and 0.51% and 0.49%
PAMPA [6]; Well 4 / %T, Well 4
  %T: 0.48% (2×) and 0.45%
PAMPA [6]; Well 5 / %T, Well 5
  %T: 0.48% (2×) and 0.47%
[3]; C0 500 uM
  Diffusion (%): 18.04% and 18.0 ± 1.5%
[3]; [9]
  Recovery (%): 91%
[3]; PAMPA, Papp, Ave, ELSD detection, C0 500 uM
  Papp at 500 uM: 4.24 ×10⁻⁶ cm/s
[3]; [10]
  Papp at 500 uM: 3.64 ± 0.42 ×10⁻⁶ cm/s
[3]; [11]
  recovery at 500 uM: 91.2%
[3]; PAMPA, ELSD detection, C0 500 uM
  Acceptor Concentration, Ave: 101.2 µM
[3]; PAMPA, UV detection, C0 500 uM
  Acceptor Concentration, Ave: 89.4 µM
[3]
  Δ % diffusion: ↑3%
PAMPA [7]; Acceptor Concentration (uM) – ELSD Detection / [row 1]
  Acceptor Concentration: 102 µM
PAMPA [7]; Acceptor Concentration (uM) – ELSD Detection / [row 2]
  Acceptor Concentration: 106 µM
PAMPA [7]; Acceptor Concentration (uM) – ELSD Detection / [row 3]
  Acceptor Concentration: 96 µM
PAMPA [7]; Acceptor Concentration (uM) – ELSD Detection / [row 4]
  Acceptor Concentration: 101 µM
PAMPA [7]; Acceptor Concentration (uM) – ELSD Detection / [row 5]
  Acceptor Concentration: 106 µM
PAMPA [7]; Acceptor Concentration (uM) – ELSD Detection / [row 6]
  Acceptor Concentration: 98.1 µM
PAMPA [7]; Acceptor Concentration (uM) – ELSD Detection / [row 7]
  Acceptor Concentration: 103 µM
PAMPA [7]; Acceptor Concentration (uM) – ELSD Detection / [row 8]
  Acceptor Concentration: 90.6 µM
PAMPA [7]; Acceptor Concentration (uM) – ELSD Detection / [row 9]
  Acceptor Concentration: 103 µM
PAMPA [7]; Acceptor Concentration (uM) – ELSD Detection / [row 10]
  Acceptor Concentration: 101 µM
PAMPA [7]; Acceptor Concentration (uM) – ELSD Detection / [row 11]
  Acceptor Concentration: 96.3 µM
PAMPA [7]; Acceptor Concentration (uM) – ELSD Detection / [row 12]
  Acceptor Concentration: 107 µM
PAMPA [7]; Acceptor Concentration (uM) – ELSD Detection / [row 13]
  Acceptor Concentration: 112 µM
PAMPA [7]; Acceptor Concentration (uM) – ELSD Detection / [row 14]
  Acceptor Concentration: 102 µM
PAMPA [7]; Acceptor Concentration (uM) – ELSD Detection / [row 15]
  Acceptor Concentration: 94.9 µM
PAMPA [7]; Acceptor Concentration (uM) – UV Detection / [row 1]
  Acceptor Concentration: 89.6 µM
PAMPA [7]; Acceptor Concentration (uM) – UV Detection / [row 2]
  Acceptor Concentration: 100 µM
PAMPA [7]; Acceptor Concentration (uM) – UV Detection / [row 3]
  Acceptor Concentration: 101 µM
PAMPA [7]; Acceptor Concentration (uM) – UV Detection / [row 4]
  Acceptor Concentration: 93.8 µM
PAMPA [7]; Acceptor Concentration (uM) – UV Detection / [row 5]
  Acceptor Concentration: 88.6 µM
PAMPA [7]; Acceptor Concentration (uM) – UV Detection / [row 6]
  Acceptor Concentration: 79.9 µM
PAMPA [7]; Acceptor Concentration (uM) – UV Detection / [row 7]
  Acceptor Concentration: 82.2 µM
PAMPA [7]; Acceptor Concentration (uM) – UV Detection / [row 8]
  Acceptor Concentration: 95.3 µM
PAMPA [7]; Acceptor Concentration (uM) – UV Detection / [row 9]
  Acceptor Concentration: 83.1 µM
PAMPA [7]; Acceptor Concentration (uM) – UV Detection / [row 10]
  Acceptor Concentration: 88.1 µM
PAMPA [7]; Acceptor Concentration (uM) – UV Detection / [row 11]
  Acceptor Concentration: 84 µM
PAMPA [7]; Acceptor Concentration (uM) – UV Detection / [row 12]
  Acceptor Concentration: 81.4 µM
PAMPA [7]; Acceptor Concentration (uM) – UV Detection / [row 13]
  Acceptor Concentration: 95.3 µM
PAMPA [7]; Acceptor Concentration (uM) – UV Detection / [row 14]
  Acceptor Concentration: 92.2 µM
PAMPA [7]; Acceptor Concentration (uM) – UV Detection / [row 15]
  Acceptor Concentration: 85.4 µM
PAMPA [8]; Well 1 / %R, Well 1
  % recovery: 97% and 94% and 93%
PAMPA [8]; Well 2 / %R, Well 2
  % recovery: 94% and 92%
PAMPA [8]; Well 3 / %R, Well 3
  % recovery: 88% and 89% and 94%
PAMPA [8]; Well 4 / %R, Well 4
  % recovery: 94% and 89% and 90%
PAMPA [8]; Well 5 / %R, Well 5
  % recovery: 87%
